Assay results published in paper PMC9069370, “Integrated Design of a Membrane‐Lytic Peptide‐Based Intravenous Nanotherapeutic Suppresses Triple‐Negative Breast Cancer” (Advanced Science, 2022).
Read-outs that look alike come from different tables or passages of the source. Square brackets hold non-standard residues; d marks the D form. Peptide text beside a SMILES is read from it.

Assays:
HMLER‐shEcad = experiment: cells; type: cell-based, human
Excerpt: (§1) […], and MCF-10A cells were maintained in MEGM with supplements and growth factors bovine pituitary extract, hydrocortisone, human epidermal growth factor, insulin, and gentamicin/amphotericin-B.

U2OS = type: cell-based, human
HEK293T = experiment: cells; type: cell-based, human
[1] = system: HMLER‐shEcad tumorspheres; experiment: cells; type: cell-based, human
[2] = Tryptophan fluorescent binding assay; conditions: tryptophan fluorescence; 50 µM peptide, lipid titrated 0-5000 µM; phosphate buffered saline 1X, pH 7.4; values as lipid per peptide
Method in brief: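 Tryptophan fluorescence was used to follow binding of peptide, fixed at 50 µM, to large unilamellar vesicles of POPC:POPG (3:1 ratio) titrated into phosphate buffered saline (1X, pH 7.4). After 1 h incubation, spectra were taken on a BioTek Cytation 5 reader with excitation at 280 nm and emission at 300 to 450 nm (9 nm slits), averaging three scans.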

[3] = ANTS/DPX liposome leakage assay; conditions: for Peptide Concentration-induced 50 % ANTS/DPX leakage at pH 4.8 (L/P), 3POPC/1POPG Vesicle / Peptide Concentration-induced 50 % ANTS/DPX leakage at pH 4.8 (L/P), POPC Vesicle / Peptide Concentration-induced 50 % ANTS/DPX leakage at pH 7.4 (L/P), 3POPC/1POPG Vesicle / Peptide Concentration-induced 50 % ANTS/DPX leakage at pH 7.4 (L/P), POPC Vesicle: 0.5 mM vesicles, peptide 0-20 µM, 3 h incubation, lipid per peptide; for Peptide Concentration-induced 50 % ANTS/DPX leakage at pH 4.8 (L/P), 3POPC/1POPG Vesicle / Peptide Concentration-induced 50 % ANTS/DPX leakage at pH 4.8 (L/P), POPC Vesicle: HCl-adjusted PBS 1X pH 4.8; for Peptide Concentration-induced 50 % ANTS/DPX leakage at pH 7.4 (L/P), 3POPC/1POPG Vesicle / Peptide Concentration-induced 50 % ANTS/DPX leakage at pH 7.4 (L/P), POPC Vesicle: PBS 1X pH 7.4, high ratio = more potent
Method in brief: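 Extruded 0.1 µm POPC or POPC/POPG (3:1) vesicles were loaded with 5 mM ANTS and 12.5 mM DPX, gel-filtered, then used at 0.5 mM lipid with titrated peptide at pH 7.4 or pH 4.8 (acidified PBS). Leakage was read at ex 350/em 510 nm after 3 h against 10% Triton maximum, expressed as lipid/peptide ratio for 50% leakage.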

HMLER = experiment: cells; type: cell-based, human
Excerpt: as §1

MCF‐10A = experiment: cells; type: cell-based, human
Excerpt: as §1

MCF‐10A mammospheres = experiment: Mammosphere viability assay (TOX8); type: cell-based, human
human red blood cells = experiment: Haemolysis (human red blood cells); type: cell-based; conditions: PBS, 37 °C, 1 h, one value for DHK, d‐DHK and d‐EEK together
Description: Fresh human red blood cells were obtained from Interstate Blood Bank, Inc., and thoroughly washed in PBS until the supernatant was clear. The peptide was serially diluted in PBS starting at a concentration of 200 µM. […] As a positive lysis control, 1% triton was used. […] After centrifugation, 10 µL of supernatant was transferred to 90 µL of ddH2O in a fresh 96‐well plate.

Row | Structure (SMILES) | IC50 (HMLER‐shEcad; 72 h) [µM] | IC50 (U2OS; 72 h) [µM] | IC50 (HEK293T; 72 h) [µM] | Lipid Concentration-induced 50% Peptide Binding (L/P), 3POPC/1POPG Vesicle [2] [L/P] | Lipid Concentration-induced 50% Peptide Binding (L/P), POPC Vesicle [2] [L/P] | Peptide Concentration-induced 50 % ANTS/DPX leakage at pH 4.8 (L/P), 3POPC/1POPG Vesicle [3] [L/P] | Peptide Concentration-induced 50 % ANTS/DPX leakage at pH 4.8 (L/P), POPC Vesicle [3] [L/P] | Peptide Concentration-induced 50 % ANTS/DPX leakage at pH 7.4 (L/P), 3POPC/1POPG Vesicle [3] [L/P] | Peptide Concentration-induced 50 % ANTS/DPX leakage at pH 7.4 (L/P), POPC Vesicle [3] [L/P] | IC50 (HMLER; 72 h) [µM] | IC50 (MCF‐10A; 72 h) [µM] | further results
1 | CC(C)C[C@H](NC(=O)CN)C(=O)N[C@@H](CC(C)C)C(=O)N[C@@H](CC(=O)O)C(=O)N[C@@H](CC(C)C)C(=O)N[C@@H](CC(C)C)C(=O)N[C@@H](CCC(=O)O)C(=O)N[C@@H](CC(C)C)C(=O)N[C@@H](CC(C)C)C(=O)N[C@@H](CC(C)C)C(=O)N[C@@H](CCCCN)C(=O)N[C@@H](C)C(=O)N[C@@H](C)C(=O)NCC(=O)N[C@@H](Cc1c[nH]c2ccccc12)C(N)=O [DEK] (H-GLLDLLELLLKAAGW-NH2) | 0.7 ± 0.07 | 19.9 ± 2.65 | 6.8 ± 0.85 | 1.67 | 1.50 | 469 | 10 | 773 | 747 | – | – | IC50 ([1]; 16 h): 12000 ± 2000 nM; IC90 ([1]; 16 h): 22000 ± 2000 nM; change of ANTS/DPX dye leakage / liposome selectivity at pH 4.8 ([3]; pH = 4.8 compared with physiological pH, anionic versus neutral liposomes): significantly increased dye leakage from anionic liposomes
2 | CC(C)C[C@H](NC(=O)CN)C(=O)N[C@@H](CC(C)C)C(=O)N[C@@H](CCCCN)C(=O)N[C@@H](CC(C)C)C(=O)N[C@@H](CC(C)C)C(=O)N[C@@H](CCCCN)C(=O)N[C@@H](CC(C)C)C(=O)N[C@@H](CC(C)C)C(=O)N[C@@H](CC(C)C)C(=O)N[C@@H](CCC(=O)O)C(=O)N[C@@H](C)C(=O)N[C@@H](C)C(=O)NCC(=O)N[C@@H](Cc1c[nH]c2ccccc12)C(N)=O [KKE] (H-GLLKLLKLLLEAAGW-NH2) | 1.7 | 12.8 ± 1.2 | 4.4 ± 0.14 | 0.44 | 0.48 | 131 | 143 | 346 | 1133 | 2.05 ± 0.64 | 2.9 ± 0.57 | –
3 | CC(C)C[C@H](NC(=O)CN)C(=O)N[C@@H](CC(C)C)C(=O)N[C@@H](CCCCN)C(=O)N[C@@H](CC(C)C)C(=O)N[C@@H](CC(C)C)C(=O)N[C@@H](CCCCN)C(=O)N[C@@H](CC(C)C)C(=O)N[C@@H](CC(C)C)C(=O)N[C@@H](CC(C)C)C(=O)N[C@@H](Cc1c[nH]cn1)C(=O)N[C@@H](C)C(=O)N[C@@H](C)C(=O)NCC(=O)N[C@@H](Cc1c[nH]c2ccccc12)C(N)=O [KKH] (H-GLLKLLKLLLHAAGW-NH2) | 2.2 ± 0.42 | 13.3 ± 0.99 | 4 ± 0.28 | 0.48 | 0.83 | 49 | 164 | 227 | 2119 | 2.4 ± 0.85 | 1.75 ± 0.35 | –
4 | CC(C)C[C@H](NC(=O)CN)C(=O)N[C@@H](CC(C)C)C(=O)N[C@@H](CCCCN)C(=O)N[C@@H](CC(C)C)C(=O)N[C@@H](CC(C)C)C(=O)N[C@@H](CCCCN)C(=O)N[C@@H](CC(C)C)C(=O)N[C@@H](CC(C)C)C(=O)N[C@@H](CC(C)C)C(=O)N[C@@H](CCCCN)C(=O)N[C@@H](C)C(=O)N[C@@H](C)C(=O)NCC(=O)N[C@@H](Cc1c[nH]c2ccccc12)C(N)=O [KKK] (H-GLLKLLKLLLKAAGW-NH2) | 1.35 ± 0.4 | 9.65 ± 1.2 | 3.7 ± 0.14 | 1.70 | 1.25 | 81 | 156 | 115 | 1369 | 1.57 ± 0.24 | 1.37 ± 0.24 | –
5 | CC[C@@H](C(=O)[C@@H](C)[C@@H](O)[C@H](C)[C@@H]1O[C@@H]([C@@H](CC)C(=O)O)CC[C@@H]1C)[C@H]1O[C@]2(C=C[C@@H](O)[C@]3(CC[C@@](C)([C@H]4CC[C@](O)(CC)[C@H](C)O4)O3)O2)[C@H](C)C[C@@H]1C [Salinomycin, salinomycin, reference compound] | – | – | – | – | – | – | – | – | – | – | – | IC50 (HMLER; Homo sapiens, 72 h, read-out: IC50 (µM) HMLER, 2D culture, MTT, 72 h incubation, library peptides average of two independent experiments (n = 2), D-enantiomers and small molecules replicated six times): 0.37 ± 0.08 µM; IC50 (HMLER; Homo sapiens, read-out: IC50 of salinomycin co‐administered with DHK, HMLER, with […] DHK): 0.05 µM; increase in anticancer efficiency (HMLER; addition of 5 µM DHK): 100 fold; IC50 (HMLER; read-out: IC50 (µM) HMLER, 2D culture, MTT, 72 h incubation, library peptides average of two independent experiments (n = 2), D-enantiomers and small molecules replicated six times): 0.4 ± 0.1 µM; cancer cell viability (HMLER; with 5 µM DHK, at the lowest dose of salinomycin): < 1%; factor by which the dosage of salinomycin required to kill cells is reduced (HMLER; with […] DHK, both HMLER and HMLER‐shEcad): 8–27; IC50 (HMLER‐shEcad; Homo sapiens, 72 h, read-out: IC50 (µM) HMLER-shEcad, 2D culture, MTT, 72 h incubation, library peptides average of two independent experiments (n = 2), D-enantiomers and small molecules replicated six times): 0.92 ± 0.28 µM; IC50 (HMLER‐shEcad; Homo sapiens, read-out: IC50 of salinomycin co‐administered with DHK, HMLER‐shEcad, with […] DHK): 0.03 µM; IC50 (HMLER‐shEcad; read-out: IC50 (µM) HMLER-shEcad, 2D culture, MTT, 72 h incubation, library peptides average of two independent experiments (n = 2), D-enantiomers and small molecules replicated six times): 0.9 ± 0.3 µM; IC50 (MCF‐10A; Homo sapiens, MCF-10A, 72 h, read-out: IC50 (µM) MCF-10A, non-cancerous cells, 2D culture, MTT, 72 h incubation, library peptides n = 2, D-enantiomers and small molecules replicated six times): 9.76 ± 2.28 µM; IC50 (MCF‐10A; Homo sapiens, MCF-10A, read-out: IC50 of salinomycin co‐administered with DHK, MCF‐10A, with […] DHK): 1.7 µM; IC50 (MCF‐10A; read-out: IC50 (µM) MCF-10A, non-cancerous cells, 2D culture, MTT, 72 h incubation, library peptides n = 2, D-enantiomers and small molecules replicated six times): 9.7 ± 2.3 µM; IC50 (HEK293T; Homo sapiens, HEK-293T, 72 h, read-out: IC50 (µM) HEK293T, non-cancerous cells, 2D culture, MTT, 72 h incubation, library peptides n = 2, D-enantiomers and small molecules replicated six times): 0.41 ± 0.1 µM; IC50 (HEK293T; Homo sapiens, HEK-293T, read-out: IC50 of salinomycin co‐administered with DHK, HEK293T, with […] DHK): 0.1 µM; IC50 (HEK293T; read-out: IC50 (µM) HEK293T, non-cancerous cells, 2D culture, MTT, 72 h incubation, library peptides n = 2, D-enantiomers and small molecules replicated six times): 0.4 ± 0.1 µM; IC50 ([1]; Homo sapiens, 120 h, read-out: IC50 against HMLER‐shEcad tumorspheres): 22000 ± 5000 nM; IC90 ([1]; Homo sapiens, read-out: IC90 against HMLER‐shEcad tumorspheres): 44000 ± 17000 nM; IC90 against MCF‐10A mammospheres (MCF‐10A mammospheres): 34000 ± 20000 nM
6 | CC(C)C[C@@H](NC(=O)CN)C(=O)N[C@H](CC(C)C)C(=O)N[C@H](CC(=O)O)C(=O)N[C@H](CC(C)C)C(=O)N[C@H](CC(C)C)C(=O)N[C@H](Cc1c[nH]cn1)C(=O)N[C@H](CC(C)C)C(=O)N[C@H](CC(C)C)C(=O)N[C@H](CC(C)C)C(=O)N[C@H](CCCCN)C(=O)N[C@H](C)C(=O)N[C@H](C)C(=O)NCC(=O)N[C@H](Cc1c[nH]c2ccccc12)C(N)=O [d-DHK] (H-G[dL][dL][dD][dL][dL][dH][dL][dL][dL][dK][dA][dA]G[dW]-NH2) | – | – | – | – | – | – | – | – | – | – | – | IC50 (HMLER; 2D culture, MTT, 72 h incubation, library peptides average of two independent experiments (n = 2), D-enantiomers and small molecules replicated six times, read-out: IC50 (µM) HMLER): 0.32 ± 0.07 µM; IC50 (HMLER‐shEcad; 2D culture, MTT, 72 h incubation, library peptides average of two independent experiments (n = 2), D-enantiomers and small molecules replicated six times, read-out: IC50 (µM) HMLER-shEcad): 0.23 ± 0.04 µM; IC50 (HMLER‐shEcad; one value printed for each pair of peptides, cell line not given, read-out: IC50 (anticancer activity)): 0.3 ± 0.1 µM; IC50 (MCF‐10A; non-cancerous cells, 2D culture, MTT, 72 h incubation, library peptides n = 2, D-enantiomers and small molecules replicated six times, read-out: IC50 (µM) MCF-10A): 0.55 ± 0.06 µM; IC50 (U2OS; 2D culture, MTT, 72 h incubation, library peptides n = 2, D-enantiomers and small molecules replicated six times, read-out: IC50 (µM) U2OS): 1.24 ± 0.03 µM; IC50 (HEK293T; non-cancerous cells, 2D culture, MTT, 72 h incubation, library peptides n = 2, D-enantiomers and small molecules replicated six times, read-out: IC50 (µM) HEK293T): 1.55 ± 0.37 µM; D‐enantiomer average IC90 against MCF‐10A mammospheres (MCF‐10A mammospheres; one average for d‐DHK and d‐EEK together): 8000 ± 5000 nM; HC50 (human red blood cells): 14 ± 5 µM
